Reference: PubChem BioAssay (NCI)
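Where inhibition never reached the appropriate level, the endpoint shown equals the highest concentration tested. Otherwise, values were interpolated linearly from a five-concentration, 48-hour dose response in 96-well plates. The concentration for 50% growth inhibition is given as GI50. Definition used: TGI = concentration required for complete inhibition of growth.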

Columns and labels:
Experiment in all cases: NCI anticancer screen, dose series, 48 h
[1] = system: 786-0 renal
[2] = system: A549 NSCLC
[3] = system: ACHN renal
[4] = system: BT-549 breast
[5] = system: CAKI-1 renal
[6] = system: CCRF-CEM leukemia
[7] = system: COLO 205 colon
[8] = system: DU-145 prostate
[9] = system: EKVX NSCLC
[10] = system: HCC-2998 colon
[11] = system: HCT-116 colon
[12] = system: HCT-15 colon
[13] = system: HL-60(TB) leukemia
[14] = system: HOP-62 NSCLC
[15] = system: HOP-92 NSCLC
[16] = system: HS 578T breast
[17] = system: HT29 colon
[18] = system: IGROV1 ovarian
[19] = system: K-562 leukemia
[20] = system: KM12 colon
[21] = system: LOX IMVI melanoma
[22] = system: MALME-3M melanoma
[23] = system: MCF7 breast
[24] = system: MDA-MB-231 breast
[25] = system: MDA-MB-435
[26] = system: MOLT-4 leukemia
[27] = system: NCI-H226 lung
[28] = system: NCI-H23 lung
[29] = system: NCI-H460 lung
[30] = system: NCI-H522 lung
[31] = system: NCI/ADR-RES ovarian
[32] = system: OVCAR-3 ovarian
[33] = system: OVCAR-4 ovarian
[34] = system: OVCAR-5 ovarian
[35] = system: OVCAR-8 ovarian
[36] = system: PC-3 prostate
[37] = system: RPMI-8226 leukemia
[38] = system: RXF 393 renal
[39] = system: SF-268 CNS
[40] = system: SF-295 CNS
[41] = system: SF-539 CNS
[42] = system: SK-MEL-2 melanoma
[43] = system: SK-MEL-28 melanoma
[44] = system: SK-MEL-5 melanoma
[45] = system: SK-OV-3 ovarian
[46] = system: SN12C renal
[47] = system: SNB-19 CNS
[48] = system: SNB-75 CNS
[49] = system: SW-620 colon
[50] = system: T-47D breast
[51] = system: TK-10 renal
[52] = system: U251 CNS
[53] = system: UACC-257 melanoma
[54] = system: UACC-62 melanoma
[55] = system: UO-31 renal

COc1cc(-n2cc(-c3ccc(F)cc3)[nH]c2=S)cc(OC)c1OC
GI50 [1]: 63.6 µM
TGI [1]: > 100 µM
GI50 [2]: > 100 µM
TGI [2]: > 100 µM
GI50 [3]: > 100 µM
TGI [3]: > 100 µM
GI50 [4]: 58 µM
TGI [4]: > 100 µM
GI50 [5]: 38.1 µM
TGI [5]: > 100 µM
GI50 [6]: > 100 µM
TGI [6]: > 100 µM
GI50 [7]: > 100 µM
TGI [7]: > 100 µM
GI50 [8]: > 100 µM
TGI [8]: > 100 µM
GI50 [9]: > 100 µM
TGI [9]: > 100 µM
GI50 [10]: > 100 µM
TGI [10]: > 100 µM
GI50 [11]: > 100 µM
TGI [11]: > 100 µM
GI50 [12]: > 100 µM
TGI [12]: > 100 µM
GI50 [13]: > 100 µM
TGI [13]: > 100 µM
GI50 [14]: > 100 µM
TGI [14]: > 100 µM
GI50 [15]: 45.5 µM
TGI [15]: > 100 µM
GI50 [16]: 18.3 µM
TGI [16]: > 100 µM
GI50 [17]: > 100 µM
TGI [17]: > 100 µM
GI50 [18]: 41.6 µM
TGI [18]: > 100 µM
GI50 [19]: > 100 µM
TGI [19]: > 100 µM
GI50 [20]: > 100 µM
TGI [20]: > 100 µM
GI50 [21]: > 100 µM
TGI [21]: > 100 µM
GI50 [22]: > 100 µM
TGI [22]: > 100 µM
GI50 [23]: 55.9 µM
TGI [23]: > 100 µM
GI50 [24]: 36.4 µM
TGI [24]: > 100 µM
GI50 [25]: > 100 µM
TGI [25]: > 100 µM
GI50 [26]: > 100 µM
TGI [26]: > 100 µM
GI50 [27]: > 100 µM
TGI [27]: > 100 µM
GI50 [28]: > 100 µM
TGI [28]: > 100 µM
GI50 [29]: > 100 µM
TGI [29]: > 100 µM
GI50 [30]: > 100 µM
TGI [30]: > 100 µM
GI50 [31]: > 100 µM
TGI [31]: > 100 µM
GI50 [32]: > 100 µM
TGI [32]: > 100 µM
GI50 [33]: > 100 µM
TGI [33]: > 100 µM
GI50 [34]: > 100 µM
TGI [34]: > 100 µM
GI50 [35]: > 100 µM
TGI [35]: > 100 µM
GI50 [36]: 80.1 µM
TGI [36]: > 100 µM
GI50 [37]: > 100 µM
TGI [37]: > 100 µM
GI50 [38]: 71.4 µM
TGI [38]: > 100 µM
GI50 [39]: 32.8 µM
TGI [39]: > 100 µM
GI50 [40]: 47 µM
TGI [40]: > 100 µM
GI50 [41]: 63.1 µM
TGI [41]: > 100 µM
GI50 [42]: > 100 µM
TGI [42]: > 100 µM
GI50 [43]: > 100 µM
TGI [43]: > 100 µM
GI50 [44]: > 100 µM
TGI [44]: > 100 µM
GI50 [45]: 38.2 µM
TGI [45]: > 100 µM
GI50 [46]: > 100 µM
TGI [46]: > 100 µM
GI50 [47]: 36.6 µM
TGI [47]: > 100 µM
GI50 [48]: 17.9 µM
TGI [48]: 46.5 µM
GI50 [49]: > 100 µM
TGI [49]: > 100 µM
GI50 [50]: 72.4 µM
TGI [50]: > 100 µM
GI50 [51]: > 100 µM
TGI [51]: > 100 µM
GI50 [52]: > 100 µM
TGI [52]: > 100 µM
GI50 [53]: > 100 µM
TGI [53]: > 100 µM
GI50 [54]: > 100 µM
TGI [54]: > 100 µM
GI50 [55]: > 100 µM
TGI [55]: > 100 µM
